Experimental data taken from patent US20250177391A1, “INHIBITORS OF DDR1 AND DDR2 FOR THE TREATMENT OF ARTHRITIS” (President and Fellows of Harvard College, priority 2022, published 2025).
In brackets after ≈: the same amount, converted by molar mass. Entries after “also recorded” stand apart in the source; their conditions may differ.

Experiments:
[1] = test system: 97 kinases (90 WT kinase and 7 mutants); experiment: Kinase selectivity profiling (ScanEDGE, DiscoveRx) competition binding, qPCR readout; details: for Selectivity Score S(1) / Selectivity Score S(10) / Selectivity Score S(35): number of hits/number of assays, excluding mutants, 1000 nM; for # of Hits, S(35) / # of Hits, S(10) / # of Hits, S(1): screened at 1000 nM; for # of Hits, S(35): kinases inhibited by >65%; for # of Hits, S(10): kinases inhibited by >90%; for # of Hits, S(1): kinases inhibited by >99%
Text: (§1) Compounds that bind the kinase active site and directly (sterically) or indirectly (allosterically) prevent kinase binding to the immobilized ligand, will reduce the amount of kinase captured on the solid support. […] Screening “hits” are identified by measuring the amount of kinase captured in test versus control samples by using a quantitative qPCR method that detects the associated DNA label. Dissociation constants (Kds) for test compound-kinase interactions can be calculated by measuring the amount of kinase captured on the solid support as a function of the test compound concentration.
(§2) Kinase-tagged T7 phage strains were grown in parallel in 24-well blocks in an E. coli host derived from the BL21 strain. E. coli were grown to log-phase and infected with T7 phage from a frozen stock (multiplicity of infection=0.4) and incubated with shaking at 32° C. until lysis (90-150 minutes). The lysates were centrifuged (6,000×g) and filtered (0.2 μm) to remove cell debris. The remaining kinases were produced in HEK-293 cells and subsequently tagged with DNA for qPCR detection. Streptavidin-coated magnetic beads were treated with biotinylated small molecule ligands for 30 minutes at room temperature to generate affinity resins for kinase assays. The liganded beads were blocked with excess biotin and washed with blocking buffer (SeaBlock (Pierce), 1% BSA, 0.05% Tween 20, 1 mM DTT) to remove unbound ligand and to reduce non-specific phage binding. Binding reactions were assembled by combining kinases, liganded affinity beads, and test compounds in 1x binding buffer (20% SeaBlock, […], 0.05% Tween 20, 6 mM DTT). Test compounds were prepared as 40x stocks in 100% DMSO and directly diluted into the assay. All reactions were performed in polypropylene 384-well plates in a final volume of 0.02 mL. The assay plates were incubated at room temperature with shaking for 1 hour and the affinity beads were washed with wash buffer (1×PBS, 0.05% Tween 20). The beads were then re-suspended in elution buffer (1×PBS, 0.05% Tween […] non-biotinylated affinity ligand) and incubated at room temperature with shaking for 30 minutes. The kinase concentration in the eluates was measured by qPCR.
(§3) The compounds were screened at 1000 nM, and results for primary screen binding interactions were determined as “% Ctrl”. % Ctrl=[(test compound signal−positive control signal)/(negative control signal−positive control signal)]*100. Negative control was 100% DMSO. Test compounds were Compounds 1-4. Positive control was a control compound.
Selectivity Score or S-score is a quantitative measure of compound selectivity for DDR2. It was calculated by dividing the number of kinases that compounds bind to by the total number of distinct kinases tested, excluding mutant variants. S=number of hits/number of assays. % Ctrl was used as a potency threshold. Selectivity score values of CS analogs provided in Table 2 reflect the number of kinases inhibited by >65% (S35), >90% (S10), or 99% (S1) by Compounds 1-4.

[2] = Solubility in pH 7.4 phosphate buffer; type: physicochemical; details: aqueous buffer
[3] = Liver S9 stability, human; type: in vitro ADME
DDR1 (h) = DDR1 (h) (Homo sapiens (Human), UniProt Q08345); experiment: DDR1 kinase inhibition, [γ-33P]-ATP filter assay; type: biochemical
Chain of DDR1 (h) (Q08345 19-913): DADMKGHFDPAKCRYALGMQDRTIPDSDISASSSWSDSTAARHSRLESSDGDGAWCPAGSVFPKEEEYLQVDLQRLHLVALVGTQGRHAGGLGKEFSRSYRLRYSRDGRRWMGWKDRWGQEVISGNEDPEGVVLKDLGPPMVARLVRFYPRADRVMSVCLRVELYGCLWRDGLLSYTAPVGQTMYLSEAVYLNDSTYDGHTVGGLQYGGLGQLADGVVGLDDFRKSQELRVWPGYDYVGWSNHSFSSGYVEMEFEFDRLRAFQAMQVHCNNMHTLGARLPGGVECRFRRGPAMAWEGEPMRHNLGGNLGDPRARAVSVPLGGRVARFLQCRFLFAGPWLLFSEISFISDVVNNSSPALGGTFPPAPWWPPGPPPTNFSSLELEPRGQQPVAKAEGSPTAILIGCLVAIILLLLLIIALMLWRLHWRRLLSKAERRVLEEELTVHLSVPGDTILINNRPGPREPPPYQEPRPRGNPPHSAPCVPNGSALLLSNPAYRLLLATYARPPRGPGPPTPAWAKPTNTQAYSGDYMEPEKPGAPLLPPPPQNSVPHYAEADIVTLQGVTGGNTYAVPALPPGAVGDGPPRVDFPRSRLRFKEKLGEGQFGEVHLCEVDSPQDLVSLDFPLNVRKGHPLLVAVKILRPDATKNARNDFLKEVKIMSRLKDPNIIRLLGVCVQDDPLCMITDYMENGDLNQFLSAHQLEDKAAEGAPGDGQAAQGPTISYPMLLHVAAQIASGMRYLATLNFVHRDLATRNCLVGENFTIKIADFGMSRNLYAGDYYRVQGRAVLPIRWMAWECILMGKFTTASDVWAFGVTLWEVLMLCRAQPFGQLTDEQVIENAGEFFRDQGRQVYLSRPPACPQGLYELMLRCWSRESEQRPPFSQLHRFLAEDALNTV
Procedure: (§4) DDR1 (h) was incubated with 8 mM MOPS pH 7.0, 0.2 mM EDTA, 250 μM KKKSPGEYVNIEFG (SEQ ID NO: 1), 10 mM magnesium acetate and [γ-33P]-ATP (specific activity and concentration as required). The reaction was initiated by the addition of the Mg/ATP mix. After incubation for 40 minutes at room temperature, the reaction was stopped by the addition of phosphoric acid to a concentration of 0.5%. An aliquot of the reaction was then spotted onto a filter and washed four times for 4 minutes in 0.425% phosphoric acid and once in methanol prior to drying and scintillation counting.

DDR2 (h) = DDR2 (h) (Homo sapiens (Human), UniProt Q16832); experiment: DDR2 kinase inhibition, [γ-33P]-ATP filter assay; type: biochemical
Chain of DDR2 (h) (Q16832 22-855): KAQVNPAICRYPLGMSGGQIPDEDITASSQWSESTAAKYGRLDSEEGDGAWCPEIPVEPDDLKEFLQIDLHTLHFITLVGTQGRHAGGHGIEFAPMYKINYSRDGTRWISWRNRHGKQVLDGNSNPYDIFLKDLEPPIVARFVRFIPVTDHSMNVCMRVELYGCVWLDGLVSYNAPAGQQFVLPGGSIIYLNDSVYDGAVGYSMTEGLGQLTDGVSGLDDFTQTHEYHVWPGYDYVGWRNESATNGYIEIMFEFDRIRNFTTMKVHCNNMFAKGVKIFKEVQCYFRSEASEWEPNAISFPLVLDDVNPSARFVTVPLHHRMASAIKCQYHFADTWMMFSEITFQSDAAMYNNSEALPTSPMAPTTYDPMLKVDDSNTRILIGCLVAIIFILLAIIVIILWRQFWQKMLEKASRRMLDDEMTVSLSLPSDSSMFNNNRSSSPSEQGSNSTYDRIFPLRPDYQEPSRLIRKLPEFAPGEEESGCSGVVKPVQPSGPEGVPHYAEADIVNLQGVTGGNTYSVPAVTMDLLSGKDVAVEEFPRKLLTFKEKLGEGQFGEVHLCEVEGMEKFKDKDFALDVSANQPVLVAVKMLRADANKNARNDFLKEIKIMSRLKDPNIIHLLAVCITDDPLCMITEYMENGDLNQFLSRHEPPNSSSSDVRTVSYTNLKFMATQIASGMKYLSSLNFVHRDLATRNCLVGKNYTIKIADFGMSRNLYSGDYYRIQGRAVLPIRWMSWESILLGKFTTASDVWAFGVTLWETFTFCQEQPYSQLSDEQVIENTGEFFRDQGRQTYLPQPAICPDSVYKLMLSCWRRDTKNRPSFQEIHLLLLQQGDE
Procedure: as §4, with “DDR2” for “DDR1”, “KKSRGDYMTMQIG” for “KKKSPGEYVNIEFG”, “TD” for “ID”, “2), 10 mM MnCl2,” for “1),”

Stability in HBSS buffer = type: physicochemical
[4] = Stability in simulated synovial fluid; type: physicochemical
Liver S9 stability, dog = type: in vitro ADME; details: beagle
Liver S9 stability, rat = type: in vitro ADME; details: SD
[5] = Liver S9 stability (SD rat, beagle, human), overall; type: in vitro ADME
p38-alpha = p38-alpha (Homo sapiens (Human), UniProt Q16539); experiment: Binding to p38-alpha, % of DMSO control (kinase binding screen); details: smaller numbers indicate stronger binding; screened at 1000 nM
Chain of p38-alpha (Q16539 whole entry): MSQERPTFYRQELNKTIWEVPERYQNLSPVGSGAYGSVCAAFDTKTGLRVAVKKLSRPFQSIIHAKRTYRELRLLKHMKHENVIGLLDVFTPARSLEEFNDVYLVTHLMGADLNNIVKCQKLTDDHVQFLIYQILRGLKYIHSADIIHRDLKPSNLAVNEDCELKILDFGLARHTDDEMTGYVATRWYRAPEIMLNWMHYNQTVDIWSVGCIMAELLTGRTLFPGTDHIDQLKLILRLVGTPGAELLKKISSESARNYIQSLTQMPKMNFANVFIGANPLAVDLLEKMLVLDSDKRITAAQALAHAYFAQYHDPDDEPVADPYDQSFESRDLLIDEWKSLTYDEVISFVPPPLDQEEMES
Text: as §1, §2, §3
Table 3 provides binding affinity scores for p38-alpha as a percent relative to DMSO control. Smaller numbers indicate stronger binding.

Caco-2 = Caco-2 permeability; type: in vitro ADME
Caco-2 permeability = type: in vitro ADME; details: human, Caco-2; Bi-directional; read-out: Caco-2 permeability, bidirectional efflux ratio
[6] = PK following IV dosing in male SD rats; details: rat, in vivo, IV 1 mg/kg
Stability in plasma = type: in vitro ADME; details: all animals
[7] = test system: articular cartilage of mouse knee joints; experiment: DMM surgery injurious mouse model of osteoarthritis, knee articular cartilage; type: in vivo; details: for Average articular cartilage score: treatment from 4 weeks after surgery
Procedure: Based on a pilot experiment,^1 the sample size of minimum 6 is required by the power analysis to achieve the specified confidence interval (95%) with at least 50% reduction of the score in the treatment group. Mouse knee joints were subjected to DMM surgery. Four weeks following the surgery, mice were treated with compound 3. Significant disparity was found in the progression of articular cartilage degeneration in knee joints with or without the treatment of compound 3 (FIG. 1).
The condition of the articular cartilage was also evaluated by the scoring system.^3 At 8 weeks after DMM surgery, the average scores for mice without and with treatment using compound 3 were 2.50 and 1.00, respectively. At 12 weeks following DMM surgery, the average scores were 4.75 for mice not treated with compound 3 and 2.83 for mice treated with compound 3. […] In addition, osteophytes and other abnormal morphology were not observed in the subchondral bone and synovial tissue in mice with or without the treatment with compound 3.

DDR2 = experiment: Protein expression of DDR2 in articular cartilage after DMM (staining); type: in vivo, mouse; details: 8 weeks after DMM
Text: (§5) Inhibitory induction of Ddr2 and Mmp-13 in articular cartilage of knee joints was observed after treatment with the compound 3. The protein expressions of Ddr2 and Mmp-13 were examined in the articular cartilage of mouse knee joints at 8 weeks after DMM, with or without the treatment with compound 3.

Mmp-13 = experiment: Protein expression of Mmp-13 in articular cartilage after DMM (staining); type: in vivo, mouse; details: 8 weeks after DMM
Text: as §5

SMILES	Selectivity Score S(1) [1]	Selectivity Score S(10) [1]	Selectivity Score S(35) [1]	# of Hits, S(35) [1]	# of Hits, S(10) [1]	# of Hits, S(1) [1]	solubility [2] [µM]	IC50 (DDR1 (h)) [nM]	IC50 (DDR2 (h)) [nM]	Stability in HBSS (buffer) (Stability in HBSS buffer) [min in buffer]	Stability in simulated synovial fluid [4] [days]	Liver S9 stability (in words) [5]	Binding affinity score for p38-alpha as percent relative to DMSO control (p38-alpha) [% Ctrl]	Caco-2 unidirectional permeability (in words) (Caco-2)	Stability in plasma (Stability in plasma)	also measured
Cc1ccc(O)cc1Nc1ccnc(Nc2cccc(S(C)(=O)=O)c2)n1 [Compound 1, 4-methyl-3-[[2-(3-methylsulfonylanilino)pyrimidin-4-yl]amino]phenol]	0.078	0.244	0.322	29	22	7	16 (≈ 5.93 µg/mL)	13	260	>120	>5	Rapid clearance	0.5	Very high	>360 min (all	half-life [3]: < 10 min; half-life (Liver S9 stability, dog): < 10 min; half-life (Liver S9 stability, rat): 20 min; efflux ratio (Caco-2 permeability): 4.27; AUC(0-t) [6]: 122 ng·h/mL; C0 [6]: 548 ng/mL; clearance [6]: 137 mL/min/kg; half-life [6]: 19.1 min; Vd ([6]; read-out: VSS): 2.11 L/kg
COc1cc(Nc2nccc(Nc3ccc(N)cc3)n2)cc(S(C)(=O)=O)c1 [Compound 4, N4-(4-aminophenyl)-N2-(3-methoxy-5-(methylsulfonyl)phenyl)pyrimidine-2,4-diamine]	0.022	0.122	0.233	21	11	2	213 (≈ 82.1 µg/mL)	66	1570	>120	>5	Very stable	87	–	>360 min (all	–
COc1ccc(S(N)(=O)=O)cc1Nc1nccc(N(C)c2ccc(N)cc2)n1 [Compound 3, 3-[[4-(4-amino-N-methyl-anilino)pyrimidin-2-yl]amino]-4-methoxy-benzenesulfonamide]	0.056	0.089	0.178	16	8	5	13.3 (≈ 5.33 µg/mL)	55	> 3300	>120	>5	Very stable	83	Very high	>360 min (all	Cartilage damage score, treated versus untreated mice ([7]; 8 and 12 weeks after DMM): significant differences; Morphology of articular cartilage ([7]; 8 weeks after DMM surgery): localized chondrocyte clusters, but no fibrillation; also recorded: only chondrocyte clusters; Average articular cartilage score ([7]; 8 weeks after DMM surgery): 1.00; Morphology of articular cartilage ([7]; 12 weeks after DMM surgery): only localized absence of the proteoglycans; also recorded: only localized proteoglycan degradation; Average articular cartilage score ([7]; 12 weeks after DMM surgery): 2.83; Progressive process of articular cartilage degeneration ([7]; DMM-induced, mouse knee joints): Significant delay; also recorded: dramatically delayed; Osteophytes and other abnormal morphology in subchondral bone and synovial tissue ([7]; mice with or without treatment): not observed; DDR2 positive (stained) cells in articular cartilage (DDR2): dramatically reduced; also recorded: significant reduction; Mmp-13 positive (stained) cells in articular cartilage (Mmp-13): dramatically reduced; also recorded: significant reduction
Cc1ccc(O)cc1Nc1ccnc(Nc2ccc(C(N)=O)cc2)n1 [Compound 2, 4-[[4-(5-hydroxy-2-methyl-anilino)pyrimidin-2-yl]amino]benzamide]	0.033	0.089	0.244	22	8	3	770 (≈ 258 µg/mL)	9	156	>120	>5	Rapid clearance	30	Very high	>360 min (all	–
